From PubChem BioAssay AID1918936 (Molecular Pharmacology Branch, DTP, NCI, 2023)

Test system: 349418-098-R-PDC complex spheroid viability
Experiment: Anticancer human tumor 349418-098-R-PDC patient-derived lung adenocarcinoma cell line growth inhibition
Settings: for IC50: curve of first compound; for viability, T/C: stronger effect = lower value
Procedure, shortened: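 Drug combinations with the LSD1 inhibitor iadademstat tested on tumor cells co-cultured as spheroids with endothelial cells and mesenchymal stem cells. Concentrations descended in half-log increments from clinical Cmax or 10 microM.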

[1] = second compound 0.1 µM, first compound 0.00949 µM
[2] = second compound 0.1 µM, first compound 0.03 µM
[3] = second compound 0.1 µM, first compound 0.0949 µM
[4] = second compound 0.1 µM, first compound 0.3 µM
[5] = second compound 0.316 µM, first compound 0.00949 µM
[6] = second compound 0.316 µM, first compound 0.03 µM
[7] = second compound 0.316 µM, first compound 0.0949 µM
[8] = second compound 0.316 µM, first compound 0.3 µM
[9] = second compound 1 µM, first compound 0.00949 µM
[10] = second compound 1 µM, first compound 0.03 µM
[11] = second compound 1 µM, first compound 0.0949 µM
[12] = second compound 1 µM, first compound 0.3 µM
[13] = second compound 3.16 µM, first compound 0.00949 µM
[14] = second compound 3.16 µM, first compound 0.03 µM
[15] = second compound 3.16 µM, first compound 0.0949 µM
[16] = second compound 3.16 µM, first compound 0.3 µM
[17] = second compound 10 µM, first compound 0.00949 µM
[18] = second compound 10 µM, first compound 0.03 µM
[19] = second compound 10 µM, first compound 0.0949 µM
[20] = second compound 10 µM, first compound 0.3 µM
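Further: spheroids exposed to agents for seven days before readout.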
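Wherever viability, T/C is given: 100% = DMSO vehicle control wells.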

Question: With `CCc1c2c(nc3ccc(O)cc13)-c1cc3c(c(=O)n1C2)COC(=O)[C@]3(O)CC` + NC1CCC(NC2CC2c2ccccc2)CC1 as the molecule, how does the IC50 (second compound 0.1 µM) read?
Answer: < 0.949 nM

Question: And the IC50 (second compound 0.316 µM)?
Answer: < 0.949 nM

Question: What about the IC50 (second compound 1 µM) of the same molecule?
Answer: < 0.949 nM

Question: And the IC50 (second compound 3.16 µM)?
Answer: < 0.949 nM

Question: What about the IC50 (second compound 10 µM) of the same molecule?
Answer: < 0.949 nM

Question: What about the viability, T/C (second compound 0.1 µM, first compound 0.000949 µM) of the same molecule?
Answer: 4.09%

Question: And the viability, T/C (second compound 0.1 µM, first compound 0.003 µM)?
Answer: 2.43%

Question: And the viability, T/C [1]?
Answer: 2.12%

Question: And the viability, T/C [2]?
Answer: 1.2%

Question: And the viability, T/C [3]?
Answer: 1.37%

Question: And the viability, T/C [4]?
Answer: 1.52%

Question: What about the viability, T/C (second compound 0.316 µM, first compound 0.000949 µM) of the same molecule?
Answer: 3.85%

Question: What about the viability, T/C (second compound 0.316 µM, first compound 0.003 µM) of the same molecule?
Answer: 2.61%

Question: And the viability, T/C [5]?
Answer: 2.07%

Question: And the viability, T/C [6]?
Answer: 1.29%

Question: And the viability, T/C [7]?
Answer: 1.05%

Question: And the viability, T/C [8]?
Answer: 1.44%

Question: What about the viability, T/C (second compound 1 µM, first compound 0.000949 µM) of the same molecule?
Answer: 4.08%

Question: What about the viability, T/C (second compound 1 µM, first compound 0.003 µM) of the same molecule?
Answer: 2.65%

Question: What about the viability, T/C [9] of the same molecule?
Answer: 1.89%

Question: What about the viability, T/C [10] of the same molecule?
Answer: 1.41%

Question: What about the viability, T/C [11] of the same molecule?
Answer: 1.14%

Question: And the viability, T/C [12]?
Answer: 1.59%

Question: What about the viability, T/C (second compound 3.16 µM, first compound 0.000949 µM) of the same molecule?
Answer: 3.68%

Question: What about the viability, T/C (second compound 3.16 µM, first compound 0.003 µM) of the same molecule?
Answer: 2.54%

Question: And the viability, T/C [13]?
Answer: 1.99%

Question: And the viability, T/C [14]?
Answer: 1.37%

Question: And the viability, T/C [15]?
Answer: 1.05%

Question: And the viability, T/C [16]?
Answer: 1.61%

Question: And the viability, T/C (second compound 10 µM, first compound 0.000949 µM)?
Answer: 3.85%

Question: What about the viability, T/C (second compound 10 µM, first compound 0.003 µM) of the same molecule?
Answer: 2.63%

Question: And the viability, T/C [17]?
Answer: 2.13%

Question: What about the viability, T/C [18] of the same molecule?
Answer: 1.59%

Question: And the viability, T/C [19]?
Answer: 1.21%

Question: And the viability, T/C [20]?
Answer: 1.47%

Question: Which IC50 (second compound 0.1 µM) does the source give for `COc1cc(C2c3cc4c(cc3C(OC3OC5COC(C)OC5C(O)C3O)C3COC(=O)C23)OCO4)cc(OC)c1O` (stereo not given) + NC1CCC(NC2CC2c2ccccc2)CC1 here?
Answer: 79.5 nM

Question: And the IC50 (second compound 0.316 µM)?
Answer: 89.9 nM

Question: And the IC50 (second compound 1 µM)?
Answer: 86.5 nM

Question: What about the IC50 (second compound 3.16 µM) of the same molecule?
Answer: 85.8 nM

Question: What about the IC50 (second compound 10 µM) of the same molecule?
Answer: 57.1 nM

Question: And the viability, T/C [1]?
Answer: 105%

Question: What about the viability, T/C [2] of the same molecule?
Answer: 83.1%

Question: What about the viability, T/C [3] of the same molecule?
Answer: 44.7%

Question: What about the viability, T/C [4] of the same molecule?
Answer: 14.6%

Question: And the viability, T/C (second compound 0.1 µM, first compound 0.949 µM)?
Answer: 6.37%

Question: What about the viability, T/C (second compound 0.1 µM, first compound 3 µM) of the same molecule?
Answer: 4.96%

Question: And the viability, T/C [5]?
Answer: 91.9%

Question: What about the viability, T/C [6] of the same molecule?
Answer: 100%

Question: And the viability, T/C [7]?
Answer: 47.7%

Question: And the viability, T/C [8]?
Answer: 15.1%

Question: What about the viability, T/C (second compound 0.316 µM, first compound 0.949 µM) of the same molecule?
Answer: 6.33%

Question: What about the viability, T/C (second compound 0.316 µM, first compound 3 µM) of the same molecule?
Answer: 5.43%

Question: And the viability, T/C [9]?
Answer: 108%

Question: And the viability, T/C [10]?
Answer: 91.5%

Question: What about the viability, T/C [11] of the same molecule?
Answer: 45.6%

Question: And the viability, T/C [12]?
Answer: 16%

Question: What about the viability, T/C (second compound 1 µM, first compound 0.949 µM) of the same molecule?
Answer: 6.74%

Question: And the viability, T/C (second compound 1 µM, first compound 3 µM)?
Answer: 5.14%

Question: What about the viability, T/C [13] of the same molecule?
Answer: 106%

Question: And the viability, T/C [14]?
Answer: 86.4%

Question: What about the viability, T/C [15] of the same molecule?
Answer: 47.6%

Question: What about the viability, T/C [16] of the same molecule?
Answer: 14.2%

Question: What about the viability, T/C (second compound 3.16 µM, first compound 0.949 µM) of the same molecule?
Answer: 6.91%

Question: And the viability, T/C (second compound 3.16 µM, first compound 3 µM)?
Answer: 5.13%

Question: And the viability, T/C [17]?
Answer: 89.6%

Question: And the viability, T/C [18]?
Answer: 67%

Question: And the viability, T/C [19]?
Answer: 37.2%

Question: And the viability, T/C [20]?
Answer: 13.8%

Question: What about the viability, T/C (second compound 10 µM, first compound 0.949 µM) of the same molecule?
Answer: 6.9%

Question: What about the viability, T/C (second compound 10 µM, first compound 3 µM) of the same molecule?
Answer: 5.24%

Question: What does the source list for `CC(C)CC(NC(=O)CNC(=O)c1cc(Cl)ccc1Cl)B1OC(=O)CC(CC(=O)O)(C(=O)O)O1` (stereo not given) + NC1CC1c1ccc(-c2cccc(O)c2)cc1?
Answer: IC50 (second compound 0.1 µM): 0.846 nM; IC50 (second compound 0.316 µM): 0.809 nM; IC50 (second compound 1 µM): 0.802 nM; IC50 (second compound 3.16 µM): 0.839 nM; IC50 (second compound 10 µM): 0.646 nM; viability, T/C (second compound 0.1 µM, first compound 0.000316 µM): 108%; viability, T/C (second compound 0.1 µM, first compound 0.001 µM): 40.2%; viability, T/C (second compound 0.1 µM, first compound 0.00316 µM): 5.55%; viability, T/C (second compound 0.1 µM, first compound 0.01 µM): 2.78%; viability, T/C (second compound 0.1 µM, first compound 0.0316 µM): 1.26%; viability, T/C (second compound 0.1 µM, first compound 0.1 µM): 1.31%; viability, T/C (second compound 0.316 µM, first compound 0.000316 µM): 114%; viability, T/C (second compound 0.316 µM, first compound 0.001 µM): 35.6%; viability, T/C (second compound 0.316 µM, first compound 0.00316 µM): 4.64%; viability, T/C (second compound 0.316 µM, first compound 0.01 µM): 1.64%; viability, T/C (second compound 0.316 µM, first compound 0.0316 µM): 1.2%; viability, T/C (second compound 0.316 µM, first compound 0.1 µM): 0.9%; viability, T/C (second compound 1 µM, first compound 0.000316 µM): 109%; viability, T/C (second compound 1 µM, first compound 0.001 µM): 36.1%; viability, T/C (second compound 1 µM, first compound 0.00316 µM): 5.1%; viability, T/C (second compound 1 µM, first compound 0.01 µM): 1.67%; viability, T/C (second compound 1 µM, first compound 0.0316 µM): 1.15%; viability, T/C (second compound 1 µM, first compound 0.1 µM): 0.9%; viability, T/C (second compound 3.16 µM, first compound 0.000316 µM): 115%; viability, T/C (second compound 3.16 µM, first compound 0.001 µM): 38.4%; viability, T/C (second compound 3.16 µM, first compound 0.00316 µM): 4.76%; viability, T/C (second compound 3.16 µM, first compound 0.01 µM): 1.62%; viability, T/C (second compound 3.16 µM, first compound 0.0316 µM): 0.95%; viability, T/C (second compound 3.16 µM, first compound 0.1 µM): 1.19%; viability, T/C (second compound 10 µM, first compound 0.000316 µM): 94.3%; viability, T/C (second compound 10 µM, first compound 0.001 µM): 22.8%; viability, T/C (second compound 10 µM, first compound 0.00316 µM): 3.46%; viability, T/C (second compound 10 µM, first compound 0.01 µM): 1.24%; viability, T/C (second compound 10 µM, first compound 0.0316 µM): 0.47%; viability, T/C (second compound 10 µM, first compound 0.1 µM): 0.62%
